Laboratory results published in US20240294551A1 (AMGEN INC., priority 2022, published 2024).
Counter-ions that a name gives are not always drawn. Like-named read-outs stand apart in the source and are kept apart here.

Legend:
[1] = biological target: His-tagged KRAS G12D protein (Homo sapiens (Human), UniProt P01116, G12D); test: KRAS G12D TR-FRET Assay; assay type: binding
Summary of the method: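 His-tagged KRAS G12D (diluted to 20 nM in pH 7.4 HEPES buffer with 10 mM MgCl2 and 10 μM GDP) was preincubated with titrated compound for 30 min at room temperature. Biotinylated KRPep-2d peptide (diluted to 20 nM) was then added for 1 h, and displacement was monitored by TR-FRET.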

[2] = biological target: GDP-bound KRAS protein (aa 1-169), containing both G12D and C118A amino acid substitutions (Homo sapiens (Human), UniProt P01116, C118A/G12D); test: KRAS G12D Coupled Nucleotide Exchange Assay; assay type: biochemical
[3] = read-out: KRAS G12D Binding IC50
[4] = read-out: KRAS G12D Coupled Exchange IC50

Chain of His-tagged KRAS G12D protein (P01116 other isoform, or with tags, fused parts or gaps G12D): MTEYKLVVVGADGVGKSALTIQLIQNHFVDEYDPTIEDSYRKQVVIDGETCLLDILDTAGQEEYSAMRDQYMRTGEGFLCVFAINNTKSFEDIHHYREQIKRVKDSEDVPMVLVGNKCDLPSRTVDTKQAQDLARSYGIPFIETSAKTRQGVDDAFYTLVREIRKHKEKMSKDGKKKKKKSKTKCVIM
Chain of GDP-bound KRAS protein (aa 1-169), containing both G12D and C118A amino acid substitutions (P01116 other isoform, or with tags, fused parts or gaps G12D/C118A): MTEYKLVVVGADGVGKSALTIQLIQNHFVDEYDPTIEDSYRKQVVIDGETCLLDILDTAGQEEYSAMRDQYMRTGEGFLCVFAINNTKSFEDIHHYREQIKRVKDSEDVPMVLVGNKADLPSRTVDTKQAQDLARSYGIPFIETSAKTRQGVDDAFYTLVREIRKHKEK

SMILES | IC50 ([1]; TR-FRET, read-out: KRAS G12D Binding) [nM] | IC50 ([2]; 2 hours compound pre-incubation, read-out: KRAS G12D Coupled Exchange) [nM] | IC50 [1, 3] [nM] | IC50 [2, 4] [nM]
OC1c2ncc(o2)CCc2c(Cl)cc3[nH]ncc3c2-c2ncc3c(nc(OC[C@@]45CCCN4C[C@H](F)C5)nc3c2F)N2CCO[C@@H]1C2 (stereo in doubt) [Example 395, (17R,18R)-9-chloro-31-fluoro-25-(((2R,7aS)-2-fluorotetrahydro-1H-pyrrolo[1,2-a]pyrrol-7a(5H)-yl)methoxy)-19,33-dioxa-5,6,15,22,24,26,30-heptaazaheptacyclo[25.3.1.1~13,16~.1~18,22~.0~2,10~.0~3,7~.0~23,28~]tritriaconta-1(31),2,4,7,9,13,15,23,25,27,29-undecaen-17-ol] | 1170 | 198 | – | –
O=C1OCCCCc2c(Cl)cc3[nH]ncc3c2-c2ncc3c(nc(OC[C@@]45CCCN4C[C@H](F)C5)nc3c2F)N2CCOC[C@H](C2)O1 [Example 324, (27S)-18-chloro-33-fluoro-4-(((2R,7aS)-2-fluorotetrahydro-1H-pyrrolo[1,2-a]pyrrol-7a(5H)-yl)methoxy)-24,26,29-trioxa-1,3,5,9,14,15-hexaazahexacyclo[25.4.1.1~6,10~.0~2,7~.0~11,19~.0~12,16~]tritriaconta-2,4,6,8,10(33),11,13,16,18-nonaen-25-one] | – | – | 61 | 42
O=C1CCCCc2cccc3cc(O)cc(c23)-c2ncc3c(nc(OC[C@@]45CCCN4C[C@H](F)C5)nc3c2F)N2CCCN1CC2 [Example 9, 32-Fluoro-4-(((2R,7aS)-2-fluorotetrahydro-1H-pyrrolo[1,2-a]pyrrol-7a(5H)-yl)methoxy)-13-hydroxy-1,3,5,9,25-pentaazahexacyclo[23.3.2.1˜6,10˜.1˜11,15˜.0˜2,7˜.0˜19,31˜]dotriaconta-2,4,6(32),7,9,11(31),12,14,16,18-decaen-24-one bis(2,2,2-trifluoroacetate)] | – | – | 302 | 292
COc1nc2c3cnc(c(F)c3n1)-c1cc(O)cc3ccc(F)c(c13)CCCC(=O)N[C@]1(C)CCCN2C1 [Example 6, (15R)-22,31-Difluoro-27-hydroxy-8-methoxy-15-methyl-3,7,9,11,16-pentaazahexacyclo[19.7.1.1˜2,6˜.1˜11,15˜.0˜5,10˜.0˜25,29˜]hentriaconta-1(28),2(31),3,5,7,9,21,23,25(29),26-decaen-17-one bis(2,2,2-trifluoroacetate)] | – | – | 154 | 125
Cc1cc2[nH]ncc2c2c1CCCOC(=O)N[C@@]1(C)CCCCN(C1)c1nc(OC[C@@]34CCCN3C[C@H](F)C4)nc3c(F)c-2ncc13 [Example 293, (26S)-32-fluoro-4-(((2R,7aS)-2-fluorotetrahydro-1H-pyrrolo[1,2-a]pyrrol-7a(5H)-yl)methoxy)-18,26-dimethyl-23-oxa-1,3,5,9,14,15,25-heptaazahexacyclo[24.4.1.1~6,10~.0~2,7~.0~11,19~.0~12,16~]dotriaconta-2,4,6(32),7,9,11,13,16,18-nonaen-24-one] | – | – | 50000 | 16400
O=C1OC[C@H]2C[C@H]2c2c(Cl)cc3[nH]ncc3c2-c2ncc3c(nc(OC[C@@]45CCCN4C[C@H](F)C5)nc3c2F)N2CCC[C@H](C2)O1 [Example 46, (11R,13S,18R)-9-chloro-31-fluoro-25-(((2R,7aS)-2-fluorotetrahydro-1H-pyrrolo[1,2-a]pyrrol-7a(5H)-yl)methoxy)-15,17-dioxa-5,6,22,24,26,30-hexaazaheptacyclo[25.3.1.1˜18,22˜.0˜2,10˜.0˜3,7˜.0˜11,13˜.0˜23,28˜]dotriaconta-1(31),2,4,7,9,23,25,27,29-nonaen-16-one bis(2,2,2-trifluoroacetate)] | – | – | 12 | 10
Cc1cc2[nH]ncc2c2c1CCCCC(=O)OC1CC[C@@H]3CC[C@H]1N3c1nc(OC[C@@]34CCCN3C[C@H](F)C4)nc3c(F)c-2ncc13 (racemic) [Example 86] | – | – | 61 | 57
O=C1CCCCc2c(Cl)cc3[nH]ncc3c2-c2ncc3c(nc(OC[C@@]45CCCN4C[C@H](F)C5)nc3c2F)N2C[C@H]3CN1[C@H]3C2 [Example 169, (18S,19R)-9-chloro-30-fluoro-24-(((2R,7aS)-2-fluorotetrahydro-1H-pyrrolo[1,2-a]pyrrol-7a(5H)-yl)methoxy)-5,6,16,21,23,25,29-heptaazaheptacyclo[24.3.1.1~18,21~.0~2,10~.0~3,7~.0~16,19~.0~22,27~]hentriaconta-1(30),2,4,7,9,22,24,26,28-nonaen-15-one] | – | – | 616 | 339
Fc1ccc2cccc3c2c1CCOCC[C@@H]1CCCN(C1)c1nc(OC[C@@]24CCCN2C[C@H](F)C4)nc2c(F)c-3ncc12 [Example 223] | – | – | 642 | 343
C[C@]12CCCN(C1)c1nc(OC[C@@]34CCCN3C[C@H](F)C4)nc3c(F)c(ncc13)-c1cccc3ccc(F)c(c13)CCOC(=O)N2 [Example 78, (15S)-22,31-difluoro-8-(((2R,7aS)-2-fluorotetrahydro-1H-pyrrolo[1,2-a]pyrrol-7a(5H)-yl)methoxy)-15-methyl-18-oxa-3,7,9,11,16-pentaazahexacyclo[19.7.1.1~2,6~.1~11,15~.0~5,10~.0~25,29~]hentriaconta-1(29),2(31),3,5,7,9,21,23,25,27-decaen-17-one] | – | – | 3810 | 2100
O=C1N[C@@H]2CCCCN(C2)c2nc(OC[C@@]34CCCN3C[C@H](F)C4)nc3c(F)c(ncc23)-c2c3c(cc4[nH]ncc24)CC[C@@H]3CCO1 [Example 302, (16R,22R)-34-fluoro-8-(((2R,7aS)-2-fluorotetrahydro-1H-pyrrolo[1,2-a]pyrrol-7a(5H)-yl)methoxy)-19-oxa-3,7,9,11,17,28,29-heptaazaheptacyclo[20.9.1.1~2,6~.1~11,16~.0~5,10~.0~25,32~.0~27,31~]tetratriaconta-1(31),2(34),3,5,7,9,25(32),26,29-nonaen-18-one] | – | – | 1270 | 831
CN1C(=O)OCCCc2c(Cl)cc3[nH]ncc3c2-c2ncc3c(nc(OC[C@@]45CCCN4C[C@H](F)C5)nc3c2F)N2C[C@H](O)C[C@H]1C2 [Example 287, (17S,19R)-9-chloro-30-fluoro-24-(((2R,7aS)-2-fluorotetrahydro-1H-pyrrolo[1,2-a]pyrrol-7a(5H)-yl)methoxy)-19-hydroxy-16-methyl-14-oxa-5,6,16,21,23,25,29-heptaazahexacyclo[24.3.1.1~17,21~.0~2,10~.0~3,7~.0~22,27~]hentriaconta-1(30),2,4,7,9,22,24,26,28-nonaen-15-one] | – | – | 1230 | 376
Cc1nc2c3cnc(c(F)c3n1)-c1c(c(C)cc3[nH]ncc13)CCCOC(=O)O[C@@H]1COCCN2C1 [Example 210, (26S)-32-fluoro-4,18-dimethyl-23,25,28-trioxa-1,3,5,9,14,15-hexaazahexacyclo[24.4.1.1~6,10~.0~2,7~.0~11,19~.0~12,16~]dotriaconta-2,4,6,8,10(32),11,13,16,18-nonaen-24-one] | – | – | 435 | 431
Cc1cc2[nH]ncc2c2c1[C@@H]1C[C@@H]1CCOC[C@H]1CN(CCO1)c1nc(OC[C@@]34CCCN3C[C@H](F)C4)nc3c(F)c-2ncc13 (single isomer, unassigned) [Example 225] | – | – | 9620 | 4770
O=C1OCC[C@H]2CCc3cc4[nH]ncc4c(c32)-c2ncc3c(nc(OC[C@@]45CCCN4C[C@H](F)C5)nc3c2F)N2CCOC[C@H](C2)O1 [Example 368, (16S,22R)-34-fluoro-8-(((2R,7aS)-2-fluorotetrahydro-1H-pyrrolo[1,2-a]pyrrol-7a(5H)-yl)methoxy)-14,17,19-trioxa-3,7,9,11,28,29-hexaazaheptacyclo[20.9.1.1~2,6~.1~11,16~.0~5,10~.0~25,32~.0~27,31~]tetratriaconta-1(31),2(34),3,5,7,9,25(32),26,29-nonaen-18-one] | – | – | 1230 | 783
C[C@@]12CCCN(C1)c1nc(OC[C@@]34CCCN3C[C@H](F)C4)nc3c(F)c(ncc13)-c1cc(O)cc3c1[C@H](CCCC(=O)N2)CCC3 [Example 28, (15R,21S)-31-fluoro-8-(((2R,7aS)-2-fluorotetrahydro-1H-pyrrolo[1,2-a]pyrrol-7a(5H)-yl)methoxy)-27-hydroxy-15-methyl-3,7,9,11,16-pentaazahexacyclo[19.7.1.1˜2,6˜.1˜11,15˜.0˜5,10˜.0˜25,29˜]hentriaconta-1(29),2(31),3,5,7,9,25,27-octaen-17-one 2,2,2-trifluoroacetate salt] | – | – | 68 | 48
Cc1cc2[nH]ncc2c2c1CCCOC(=O)O[C@@]1(C)COCCN(C1)c1nc(OC[C@@H]3CCCN3C)nc3c(F)c-2ncc13 [Example 182, (26R)-32-fluoro-18,26-dimethyl-4-(((2S)-1-methyl-2-pyrrolidinyl)methoxy)-23,25,28-trioxa-1,3,5,9,14,15-hexaazahexacyclo[24.4.1.1~6,10~.0~2,7~.0~11,19~.0~12,16~]dotriaconta-2,4,6,8,10(32),11,13,16,18-nonaen-24-one] | – | – | 7570 | 3620
C[C@@]12CCCN(C1)c1nc(OC[C@@]34CCCN3C[C@H](F)C4)nc3c(F)c(ncc13)-c1cccc3cccc(c13)CCCOC(=O)O2 [Example 121] | – | – | 508 | 422
Cc1c2ncc3c(nc(OCC45CCC(CC4)O5)nc13)N1CCC[C@](C)(C1)NC(=O)CCCc1c(F)ccc3cc(O)cc-2c13 [Example 23, (15R)-22-Fluoro-27-hydroxy-15,31-dimethyl-8-((1r,4r)-7-oxabicyclo[2.2.1]heptan-1-ylmethoxy)-3,7,9,11,16-pentaazahexacyclo[19.7.1.1˜2,6˜.1˜11,15˜.0˜5,10˜.0˜25,29˜]hentriaconta-1(28),2(31),3,5,7,9,21,23,25(29),26-decaen-17-one] | – | – | 160 | 111
